According to patent US5298490A, “Tetra and penta-peptides useful in regulating the immune system” (Immunobiology Research Institute, Inc., priority 1990, dated 1994):
Square brackets hold non-standard residues; d marks the D form. Ends that are not written are not given here. Peptide text beside a SMILES is read from it. Aib = CC(C)(N)C(=O)O

Legend:
MOLT-4 cells [1] = assay: Cyclic GMP assay in MOLT-4 cells; format: cell-based, human; details: for activity in cGMP dose-response curves (FIG. 1): evaluated from 1 to 1000 μgs/ml in MOLT-4 cells
Description: This assay measures the ability of a peptide of this invention to bind to the cell membrane receptor of the intact MOLT-4 cell and selectively stimulate production of cyclic GMP, as does human thysplenin and human thymopentin.
The MOLT-4 cell line was obtained from the American Type Culture Collection of Rockville, Md. MOLT-4 cells were freshly seeded and grown for 3 days with harvesting as described in T. Audhya et al, Arch. Biochem Biophys., 234: 167-177 (1984). The cells were washed 3 times in PBS and resuspended in RPMI 1640 at a concentration of 1.0×10^7 cells/ml and were allowed to equilibrate at 37° C. for 30 minutes before the addition of the test tetrapeptides and pentapeptides (25 ul) and control peptides. The incubation was allowed to proceed in a shaking water bath for 4-5 minutes and was then terminated by addition of 1 ml ice-cold TCA (10 percent).
The cells in TCA were homogenized and sonicated to release cyclic nucleotide. The suspension was centrifuged at 3000×g for 20 minutes at 4° C. The resulting precipitate was dissolved in 0.1N NaOH to determine the protein content. TCA was removed from the supernatant fraction by extracting 4 times with 5 ml of water-saturated diethyl ether. After the final extraction, the remaining traces of ether were removed by heating for 10 minutes in a 50° C. water bath. After lyophilization the sample was reconstituted in 50 mM acetate buffer (pH 6.2) for radioimmunoassay of cyclic GMP.
A threshold activity was determined for each peptide tested. This is defined as the lowest concentration of the test peptide which induced an intracellular level of cyclic GMP greater than two standard deviations above the control. The controls had intracellular cyclic GMP values of less than 0.5 picomoles/ml (mean±standard deviation). Test results were considered positive if the level of cyclic GMP was greater than 2 times (2 standard deviations) that determined for the parallel negative control.

[2] = Enzymatic stability in rat intestinal juice; details: 37° C., HPLC
Method: To illustrate the stability of a peptide of the present invention against degradation by intestinal and serum enzymes, an exemplary peptide Acetyl-Arg-Pro-Asp-Val-NH2 was incubated at 37° C. in rat intestinal juice and human serum for up to 120 minutes. Similarly treated for comparison were the tetrapeptide Arg-Lys-Asp-Val and thymopentin.

[3] = Kisfaludy et al 1983; cited from earlier work
CEM cells = details: cited from earlier work
MOLT-4 cells [4] = details: cited from earlier work
[5] = test system: non-obese diabetic (NOD) mice; assay: Diabetic mice assay; format: in vivo; details: 1 mg/kg body weight one time a week from weaning, vs vehicle
Description: A strain of non-obese diabetic (NOD) laboratory mice maintained in Hopital Necker, Paris, France, have been bred in which the females spontaneously develop autoimmune disease of the pancreas. In the normal course of this disease in mice, the pancreatic cells are destroyed, resulting in loss of insulin production and diabetes mellitus. This mouse strain thus is a close model of Type I onset juvenile diabetes, which is normally treated with insulin replacement, but which can be typically slowed by immunosuppressive drugs, e.g., cyclosporin.
In this assay, groups of 12 to 20 NOD female mice are injected with 1 mg/kg body weight of a peptide of the present invention one time a week at weaning. This peptide (acetyl-Arg-Pro-Val-Ala-NH2) called splenoralin was administered the above-described formulation containing glycine and raffinose. A control group of mice were injected similarly with 1 mg of the glycine-raffinose vehicle without the peptide one time a week.

BP8 murine tumor cells = assay: BP8 tumor inhibition assay; format: in vivo, C3H mice; details: 30 ng or 30 μg subcutaneously once per week, vs glycine-raffinose vehicle
Method: An assay is performed using normal healthy C3H laboratory mice. The mice, in groups of 12 to 20, are injected subcutaneously with either 30 ng or 30 μg of a peptide of the present invention once per week. This peptide (acetyl-Arg-Pro-Val-Ala-NH2) called splenoralin was administered in citrate buffer containing 1% glycine and 2% D-raffinose pentahydrate, as described in pending United States patent application Ser. No. 336,236, incorporated herein by reference. A control group of mice were injected similarly with 30 μg of the glycine-raffinose vehicle without the peptide.
Four weeks after the initiation of these weekly injections, each mouse was inoculated intradermally with 5×10^6 BP8 murine tumor cells. BP8 is a conventional benzpyrene induced murine tumor. Once every week thereafter, each mouse is injected with the same amount of either the peptide formulation or the vehicle alone.
FIG. 3 indicates the percent of mice in each group which are negative for the presence of BP8 tumors in the days after the inoculation of tumor cells. FIG. 4 indicates for the same experiment the maximum size of tumors in those mice that did develop tumors.

[6] = Enzymatic stability in human serum; format: in vitro ADME; details: 37° C., HPLC
Description: Thymopentin was 50% degraded at about 20 seconds.

[7] = Table I, peptide concentration 1 μg/ml
[8] = Table I, peptide concentration 10 μg/ml
[9] = Table I, peptide concentration 100 μg/ml
[10] = Table I, peptide concentration 1000 μg/ml
[11] = Table II, peptide concentration 1 μg/ml
[12] = Table II, peptide concentration 10 μg/ml
[13] = Table II, peptide concentration 100 μg/ml

Molecule | cGMP Concentration (MOLT-4 cells [1]; [7]) [picograms/ml] | cGMP Concentration (MOLT-4 cells [1]; [8]) [picograms/ml] | cGMP Concentration (MOLT-4 cells [1]; [9]) [picograms/ml] | cGMP Concentration (MOLT-4 cells [1]; [10]) [picograms/ml] | also measured
CC(=O)N[C@@H](CCCNC(=N)N)C(=O)NC(C)(C)C(=O)N[C@@H](C)C(=O)N[C@H](C(N)=O)C(C)C [Acetyl-Arg--Aib--Ala--Val--NH2, Acetyl-Arg-Aib-Ala-Val-NH2] (Ac-R[Aib]AV-NH2) | 18.78 | 30.45 | 36.17 | 39.48 | 
CC(=O)N[C@@H](CCCNC(=N)N)C(=O)N1CCC[C@H]1C(=O)N[C@@H](C)C(=O)N[C@H](C(N)=O)C(C)C [Acetyl-Arg--Pro--Ala--Val--NH2, Acetyl-Arg-Pro-Ala-Val-NH2] (Ac-RPAV-NH2) | 7.1 | 14.6 | 19.1 | 24.5 | activity in cGMP dose-response curves (FIG. 1) (MOLT-4 cells [1]): active
CC(C)[C@H](NC(=O)[C@H](CC(=O)O)NC(=O)[C@H](CCCCN)NC(=O)[C@@H](N)CCCNC(=N)N)C(=O)O [Arg-Lys-Asp-Val, reference compound] (H-RKDV-OH) |  |  |  |  | time after which totally digested ([2]; rat intestinal juice and human serum, matrix of this value not stated): 25 s
CC(=O)N[C@@H](CCCNC(=N)N)C(=O)N1CCC[C@H]1C(=O)N[C@@H](CCC(=O)O)C(=O)N[C@H](C(N)=O)C(C)C [Acetyl-Arg--Pro--Glu--Val--NH2, Acetyl-Arg-Pro-Glu-Val-NH2] (Ac-RPEV-NH2) | 4.7 | 9.41 | 16.76 | 25.00 | 
Arg-Lys-Ala-Val (RKAV; printed: Arg-Lys-Ala-Val) |  |  |  |  | activity in in vitro E rosette test [3]: drastically reduced activity
CC(=O)N[C@@H](CCCNC(=N)N)C(=O)NC(C)(C)C(=O)N[C@@H](CCC(=O)O)C(=O)N[C@H](C(N)=O)C(C)C [Acetyl-Arg--Aib--Glu--Val--NH2, Acetyl-Arg-Aib-Glu-Val-NH2] (Ac-R[Aib]EV-NH2) | 3.7 | 11.0 | 17.7 | 24.9 | 
Arg-Ala-Asp-Val (RADV; printed: Arg-Ala-Asp-Val) |  |  |  |  | activity in in vitro E rosette test [3]: drastically reduced activity
RKDVY [Arg--Lys--Asp--Val--Tyr, Arg-Lys-Asp-Val-Tyr, reference compound] | 6.4 | 18.3 | 20.8 | 21.9 | cGMP Concentration (MOLT-4 cells [1]; [11]): 3.55 picograms/ml; cGMP Concentration (MOLT-4 cells [1]; [12]): 13.56 picograms/ml; cGMP Concentration (MOLT-4 cells [1]; [13]): 18.70 picograms/ml; cGMP Concentration (MOLT-4 cells [1]; Table II, peptide concentration 1000 μg/ml): 24.85 picograms/ml; biological changes in CEM cells (CEM cells): induce biological changes; biological changes in MOLT-4 cells (MOLT-4 cells [4]): induce biological changes
thymopoietin: immunomodulatory protein isolated from bovine and human thymus (PEFLEDPSVLTKDKLKSELVANNVTLPAGEQRKDVYVQLYLQHLTARNR; Thymopoietin; UniProt P42166 2-50, looked up) |  |  |  |  | biological changes in CEM cells (CEM cells): induce biological changes; biological changes in MOLT-4 cells (MOLT-4 cells [4]): induce biological changes
Arg-Lys-Glu-Val (RKEV; printed: Arg-Lys-Glu-Val) |  |  |  |  | activity in in vitro E rosette test [3]: highly active
CC(=O)N[C@@H](CCCNC(=N)N)C(=O)N1CCC[C@H]1C(=O)N[C@@H](CC(=O)O)C(=O)N1CCC[C@H]1C(N)=O [Acetyl-Arg-Pro-Asp-Pro-NH2, reference compound] (Ac-RPDP-NH2) |  |  |  |  | activity in cGMP dose-response curves (FIG. 1) (MOLT-4 cells [1]): inactive
Acetyl-Arg-Pro-beta-Asp-Gly-NH2 [Acetyl-Arg--Pro-β-Asp--Gly--NH2] | 20.56 | 31.83 | 36.66 | 34.95 | 
CC(=O)N[C@@H](CCCNC(=N)N)C(=O)N1CCC[C@H]1C(=O)N[C@H](C(=O)N[C@@H](C)C(N)=O)C(C)C [Acetyl-Arg--Pro--Val--Ala--NH2, Acetyl-Arg-Pro-Val-Ala-NH2] (Ac-RPVA-NH2) |  |  |  |  | incidence of diabetes / survival in NOD female mice (FIG. 6) [5]: restored the immune function and allowed survival of a greater number of animals than did the placebo; cGMP Concentration (MOLT-4 cells [1]; [11]): 7.77 picograms/ml; cGMP Concentration (MOLT-4 cells [1]; [12]): 17.39 picograms/ml; cGMP Concentration (MOLT-4 cells [1]; [13]): 24.47 picograms/ml; activity in cGMP dose-response curves (FIG. 2) (MOLT-4 cells [1]; evaluated from 1 to 100 μgs/ml in MOLT-4 cells): active; resistance to BP8 tumor growth (percent tumor negative, tumor size; FIG. 3, 4) (BP8 murine tumor cells): enabled the mice to resist the spread and growth of the tumor cells
CC(=O)N[C@@H](CCCNC(=N)N)C(=O)N1CCC[C@H]1C(=O)N[C@@H](CC(=O)O)C(=O)N[C@H](C(N)=O)C(C)C [Acetyl-Arg--Pro--Asp--Val--NH2, Acetyl-Arg-Pro-Asp-Val-NH2] (Ac-RPDV-NH2) | 4.55 | 8.99 | 19.62 | 24.09 | time remaining substantially undegraded [6]: at least 120 seconds; time remaining substantially undegraded ([2]; rat intestinal juice): at least 120 seconds
CC(=O)N[C@@H](CCCNC(=N)N)C(=O)N1CCC[C@H]1C(=O)N[C@@H](CCC(N)=O)C(=O)N[C@H](C(N)=O)C(C)C [Acetyl-Arg--Pro--Gln--Val--NH2] (Ac-RPQV-NH2) | 18.75 | 29.68 | 34.98 | 40.23 | 
Acetyl-Arg-Pro-β-D-Asp-Val-NH2 [Acetyl-Arg--Pro-β-D-Asp--Val--NH2] | 6.6 | 14.3 | 20.5 | 25.0 | activity in cGMP dose-response curves (FIG. 1) (MOLT-4 cells [1]): active
